Measured values from the supplement of paper PMC10307832.

How the values were obtained:
Assay in all cases: relative viability (nuclei count vs DMSO), 5 days (fraction); higher = more cells survive
NCI-H650 = tested on: NCI-H650
How it was run: (§1)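 Lung cancer cell lines, seeded in 1536-well plates, were treated the following day by pin tool with a single drug or with five library-drug doses (not always all listed) in √10 steps on top of a fixed anchor-drug dose. Cells were fixed and nuclei stained in one step after 5 days, and nuclei were counted. Relative viability is the nuclei count for treated wells divided by that for vehicle wells, reported as medians of duplicate plates.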

NCI-H2009 = tested on: NCI-H2009
How it was run: as §1

NCI-H1792 = tested on: NCI-H1792
How it was run: as §1

SK-LU-1 = tested on: SK-LU-1
How it was run: as §1

NCI-H1993 = tested on: NCI-H1993
How it was run: as §1

LC-2-ad = tested on: LC-2-ad
How it was run: as §1

HCC-15 = tested on: HCC-15
How it was run: as §1

NCI-H647 = tested on: NCI-H647
How it was run: as §1

RERF-LC-KJ = tested on: RERF-LC-KJ
How it was run: as §1

LCLC-97TM1 = tested on: LCLC-97TM1
How it was run: as §1

NCI-H1755 = tested on: NCI-H1755
How it was run: as §1

NCI-H661 = tested on: NCI-H661
How it was run: as §1

NCI-H2085 = tested on: NCI-H2085
How it was run: as §1

SK-MES-1 = tested on: SK-MES-1
How it was run: as §1

NCI-H23 = tested on: NCI-H23
How it was run: as §1

NCI-H1395 = tested on: NCI-H1395
How it was run: as §1

NCI-H520 = tested on: NCI-H520
How it was run: as §1

BEN = tested on: BEN
How it was run: as §1

A-427 = tested on: A-427
How it was run: as §1

PC-3 [JPC-3] = tested on: PC-3 [JPC-3]
How it was run: as §1

NCI-H1651 = tested on: NCI-H1651
How it was run: as §1

NCI-H1650 = tested on: NCI-H1650
How it was run: as §1

NCI-H838 = tested on: NCI-H838
How it was run: as §1

H3255 = tested on: H3255
How it was run: as §1

## Cc1cn(-c2cc(NC(=O)c3ccc(C)c(Nc4nccc(-c5cccnc5)n4)c3)cc(C(F)(F)F)c2)cn1 [Nilotinib] + Nc1nc2[nH]cc(CCc3ccc(C(=O)N[C@@H](CCC(=O)O)C(=O)O)cc3)c2c(=O)[nH]1 [Pemetrexed] (partner 0.2 µM)
NCI-H650; first compound 0.001 µM
  relative viability: 0.887
NCI-H650; first compound 0.003162 µM
  relative viability: 0.86
NCI-H650; first compound 0.01 µM
  relative viability: 1.12
NCI-H650; first compound 0.03162 µM
  relative viability: 0.914
NCI-H650; first compound 0.1 µM
  relative viability: 0.746
NCI-H2009; first compound 0.001 µM
  relative viability: 0.926
NCI-H2009; first compound 0.003162 µM
  relative viability: 0.964
NCI-H2009; first compound 0.01 µM
  relative viability: 0.919
NCI-H2009; first compound 0.03162 µM
  relative viability: 1.06
NCI-H2009; first compound 0.1 µM
  relative viability: 0.989
NCI-H1792; first compound 0.001 µM
  relative viability: 0.623
NCI-H1792; first compound 0.003162 µM
  relative viability: 0.899
NCI-H1792; first compound 0.01 µM
  relative viability: 0.72
NCI-H1792; first compound 0.03162 µM
  relative viability: 0.525
NCI-H1792; first compound 0.1 µM
  relative viability: 0.709
SK-LU-1; first compound 0.001 µM
  relative viability: 0.867
SK-LU-1; first compound 0.003162 µM
  relative viability: 1.09
SK-LU-1; first compound 0.01 µM
  relative viability: 0.949
SK-LU-1; first compound 0.03162 µM
  relative viability: 0.524
SK-LU-1; first compound 0.1 µM
  relative viability: 0.415
NCI-H1993; first compound 0.001 µM
  relative viability: 0.574
NCI-H1993; first compound 0.003162 µM
  relative viability: 0.685
NCI-H1993; first compound 0.01 µM
  relative viability: 0.649
NCI-H1993; first compound 0.03162 µM
  relative viability: 0.589
NCI-H1993; first compound 0.1 µM
  relative viability: 0.367
LC-2-ad; first compound 0.001 µM
  relative viability: 0.248
LC-2-ad; first compound 0.003162 µM
  relative viability: 0.251
LC-2-ad; first compound 0.01 µM
  relative viability: 0.257
LC-2-ad; first compound 0.03162 µM
  relative viability: 0.251
LC-2-ad; first compound 0.1 µM
  relative viability: 0.248
HCC-15; first compound 0.001 µM
  relative viability: 0.213
HCC-15; first compound 0.003162 µM
  relative viability: 0.205
HCC-15; first compound 0.01 µM
  relative viability: 0.204
HCC-15; first compound 0.03162 µM
  relative viability: 0.18
HCC-15; first compound 0.1 µM
  relative viability: 0.162
NCI-H647; first compound 0.001 µM
  relative viability: 0.158
NCI-H647; first compound 0.003162 µM
  relative viability: 0.158
NCI-H647; first compound 0.01 µM
  relative viability: 0.118
NCI-H647; first compound 0.03162 µM
  relative viability: 0.138
NCI-H647; first compound 0.1 µM
  relative viability: 0.118
RERF-LC-KJ; first compound 0.001 µM
  relative viability: 0.508
RERF-LC-KJ; first compound 0.003162 µM
  relative viability: 0.6
RERF-LC-KJ; first compound 0.01 µM
  relative viability: 0.454
RERF-LC-KJ; first compound 0.03162 µM
  relative viability: 0.422
RERF-LC-KJ; first compound 0.1 µM
  relative viability: 0.274
LCLC-97TM1; first compound 0.001 µM
  relative viability: 0.18
LCLC-97TM1; first compound 0.003162 µM
  relative viability: 0.165
LCLC-97TM1; first compound 0.01 µM
  relative viability: 0.175
LCLC-97TM1; first compound 0.03162 µM
  relative viability: 0.183
LCLC-97TM1; first compound 0.1 µM
  relative viability: 0.0978
NCI-H1755; first compound 0.001 µM
  relative viability: 0.41
NCI-H1755; first compound 0.003162 µM
  relative viability: 0.383
NCI-H1755; first compound 0.01 µM
  relative viability: 0.328
NCI-H1755; first compound 0.03162 µM
  relative viability: 0.306
NCI-H1755; first compound 0.1 µM
  relative viability: 0.361
NCI-H661; first compound 0.001 µM
  relative viability: 0.966
NCI-H661; first compound 0.003162 µM
  relative viability: 1.03
NCI-H661; first compound 0.01 µM
  relative viability: 1.07
NCI-H661; first compound 0.03162 µM
  relative viability: 0.888
NCI-H661; first compound 0.1 µM
  relative viability: 0.893
NCI-H2085; first compound 0.001 µM
  relative viability: 0.981
NCI-H2085; first compound 0.003162 µM
  relative viability: 0.907
NCI-H2085; first compound 0.01 µM
  relative viability: 1
NCI-H2085; first compound 0.03162 µM
  relative viability: 0.932
NCI-H2085; first compound 0.1 µM
  relative viability: 0.562
SK-MES-1; first compound 0.001 µM
  relative viability: 0.958
SK-MES-1; first compound 0.003162 µM
  relative viability: 0.841
SK-MES-1; first compound 0.01 µM
  relative viability: 1.05
SK-MES-1; first compound 0.03162 µM
  relative viability: 0.868
SK-MES-1; first compound 0.1 µM
  relative viability: 0.503
NCI-H23; first compound 0.001 µM
  relative viability: 0.739
NCI-H23; first compound 0.003162 µM
  relative viability: 0.553
NCI-H23; first compound 0.01 µM
  relative viability: 0.494
NCI-H23; first compound 0.03162 µM
  relative viability: 0.575
NCI-H23; first compound 0.1 µM
  relative viability: 0.368
NCI-H1395; first compound 0.001 µM
  relative viability: 1
NCI-H1395; first compound 0.01 µM
  relative viability: 0.607
NCI-H1395; first compound 0.03162 µM
  relative viability: 0.642
NCI-H1395; first compound 0.1 µM
  relative viability: 0.517
NCI-H520; first compound 0.001 µM
  relative viability: 0.591
NCI-H520; first compound 0.003162 µM
  relative viability: 0.674
NCI-H520; first compound 0.01 µM
  relative viability: 0.717
NCI-H520; first compound 0.03162 µM
  relative viability: 0.578
NCI-H520; first compound 0.1 µM
  relative viability: 0.556
BEN; first compound 0.001 µM
  relative viability: 0.868
BEN; first compound 0.003162 µM
  relative viability: 0.715
BEN; first compound 0.01 µM
  relative viability: 0.614
BEN; first compound 0.03162 µM
  relative viability: 0.772
BEN; first compound 0.1 µM
  relative viability: 0.469
A-427; first compound 0.003162 µM
  relative viability: 0.963
A-427; first compound 0.01 µM
  relative viability: 0.952
A-427; first compound 0.1 µM
  relative viability: 0.852
PC-3 [JPC-3]; first compound 0.001 µM
  relative viability: 1.02
PC-3 [JPC-3]; first compound 0.01 µM
  relative viability: 0.889
PC-3 [JPC-3]; first compound 0.03162 µM
  relative viability: 1.05
PC-3 [JPC-3]; first compound 0.1 µM
  relative viability: 0.599
NCI-H1651; first compound 0.001 µM
  relative viability: 0.571
NCI-H1651; first compound 0.003162 µM
  relative viability: 0.616
NCI-H1651; first compound 0.01 µM
  relative viability: 0.732
NCI-H1651; first compound 0.03162 µM
  relative viability: 0.556
NCI-H1651; first compound 0.1 µM
  relative viability: 0.249
NCI-H1650; first compound 0.001 µM
  relative viability: 0.409
NCI-H1650; first compound 0.003162 µM
  relative viability: 0.526
NCI-H1650; first compound 0.01 µM
  relative viability: 0.39
NCI-H1650; first compound 0.03162 µM
  relative viability: 0.375
NCI-H1650; first compound 0.1 µM
  relative viability: 0.498
NCI-H838; first compound 0.001 µM
  relative viability: 0.246
NCI-H838; first compound 0.003162 µM
  relative viability: 0.258
NCI-H838; first compound 0.01 µM
  relative viability: 0.261
NCI-H838; first compound 0.03162 µM
  relative viability: 0.252
NCI-H838; first compound 0.1 µM
  relative viability: 0.228
H3255; first compound 0.001 µM
  relative viability: 0.528
H3255; first compound 0.003162 µM
  relative viability: 0.671
H3255; first compound 0.01 µM
  relative viability: 0.578
H3255; first compound 0.03162 µM
  relative viability: 0.579
H3255; first compound 0.1 µM
  relative viability: 0.523
